Tested on: glutamine synthetase (GS)
Test: glutamine synthetase inhibition assay (glutamine synthetase activity assay kit, Abcam)
Type: biochemical
Details: for Inhibition (%) of glutamine synthetase, Assay 1: Table S4, assay 1 of 3; for Inhibition (%) of glutamine synthetase, Assay 1 / Inhibition (%) of glutamine synthetase, Assay 2 / Inhibition (%) of glutamine synthetase, Assay 3: 1 mM inhibitor final concn, enzyme pre-incubated with inhibitor 37 °C 10 min, colorimetric ADP detection, A570 (average of 3 readings), background subtracted, vs enzyme control; for Inhibition (%) of glutamine synthetase, Assay 1 / Inhibition (%) of glutamine synthetase, Assay 2 / Inhibition (%) of glutamine synthetase, Assay 3 / Average inhibition (%) of glutamine synthetase: reaction 37 °C 60 min; for Inhibition (%) of glutamine synthetase, Assay 2: Table S5, assay 2 of 3; for Inhibition (%) of glutamine synthetase, Assay 3: Table S6, assay 3 of 3; for Average inhibition (%) of glutamine synthetase: Table S7, average of assay 1, 2 and 3 (mean of 3 independent experiments), 1 mM inhibitor, pre-incubation 37 °C 10 min, A570; for inhibitory activity on glutamine synthetase compared with MSO: screen at 1 mM inhibitor concentration (Fig. 4), comparison in words
Protocol: Assays were performed at 1 mM inhibitor concentration using a glutamine synthetase activity assay kit (Abcam).
Procedure f or the glutamine synthetase inhibition assay (Figure 4)
In this assay, glutamine synthetase catalyzesthe transformation from g lutamate and ATP t o g lutamine and ADP. ADP in the subsequent reaction, in presence of ADP converter, ADP d eveloper and ADP pr obe , forms a colorimetric product that is measured at absorbance 570 nm.
1. Stock solutions of glutamine synthetase, ATP, ADP converter, and ADP developer were prepared according to the protocol by Abcam: https://www.abcam.com/ps/products/284/ab284572/documents/Glutamine-Synthetase- Activity-Assay- […]
GS assay buffer, glutamate, and ADP probe were used as supplied.
2. Glutamine synthetase (2 µL ) was pre- incubated with methionine sulfoximine (MSO) (2 µL, 10 mM, 1 mM final concn) and methionine sulfoximine peptides 1b -8b (2 µL, 10 mM, 1 mM final concn) at 37 °C for 10 min, protected from light. For enzyme control, GS assay buffer (2 µL ) was used instead of MSO or peptides 1b -8b. For background control, GS assay buffer (4 µL) without enzyme was used.
3. Substrate mix was prepared by mixing GS assay buffer (96 µL ), glutamate (24 µL ), and ATP (24 µL ).
The resulting substrate mix (12 µL) was added to each sample.
4. ADP reactio n mix was prepared by mixing GS assay buffer (42 µL), ADP probe (6 µL), ADP converter (6 µL), and ADP developer (6 µL ). The resulting ADP reaction mix (4 µL ) was added to each sample. The total reaction volume for each sample is 20 µL.
5. After incubation of the reaction mixture at 37 °C for 60 mi n , the absorbance at 570 nm (A570) was measured on a Thermo Scientific NanoDrop 2000c spectrophotometer. For each sample, A570 was measure […]
6. The background control reading was subtracted from test sample readings and enzyme control readings.
7. Inhibition of glutamine synthetase was det er mi ned by comparing A570 (test sample) and A570 ( enzyme
Percentage inhibition = A570 (enzyme control)−A570 (test sample)A570 (enzyme control) × 100%
8. The assay was repeated for 3 times and the percentage inhibition values are me a n ± S D of 3 independent

Row | Compound | Inhibition (%) of glutamine synthetase, Assay 1 [%] | Inhibition (%) of glutamine synthetase, Assay 2 [%] | Inhibition (%) of glutamine synthetase, Assay 3 [%] | Average inhibition (%) of glutamine synthetase [%] | inhibitory activity on glutamine synthetase compared with MSO
1 | Ac-VGMSWP-NH2 [4b] | 13.3 | 15.5 | 14.3 | 14.4 | 
2 | Ac-MGKFQ-NH2 [2b] | 29.2 | 28.6 | 33.0 | 30.3 | higher than that observed for MSO
3 | Ac-RPKPQQFFGLM-NH2 (substance P) [7b] | 1.7 | 3.1 | 3.7 | 2.8 | 
4 | Ac-YGMLNP-NH2 [3b] | 0.9 | 1.0 | 0.8 |  | 
5 | Ac-FPQSGM-NH2 [5b] | 9.5 | 13.0 | 12.1 | 11.5 | 
6 | Ac-MGDFQ-NH2 [1b] | 16.8 | 17.2 | 19.0 | 17.7 | 
7 | CS(=N)(=O)CC[C@H](N)C(=O)O (some centres unmarked) [MSO, methionine sulfoximine] | 18.1 | 18.8 | 19.2 | 18.7 | 
8 | Ac-SYSMEHFRWGKPV-NH2 (α-MSH) [8b] | 35.3 | 33.6 | 36.1 | 35.0 | higher than that observed for MSO
9 | Ac-MGRFTINP-NH2 [6b] | 28.6 | 26.2 | 24.1 | 26.3 | higher than that observed for MSO

— paper PMC9728511, “Direct formation and site-selective elaboration of methionine sulfoximine in polypeptides” (Chemical Science, 2022)
